{
  "source": "patent US8889902B2",
  "about": "“Acetylsalicylic acid salts” (priority 2009, dated 2014)",
  "key": {"[1]": {"tested_on": "adjuvant arthritis induced by Freund's adjuvant", "assay": "Adjuvant arthritis: paw volume and ankle joint", "type": "in vivo, Wistar rats", "conditions": "100 mg/kg daily p.o.", "from_the_text": "Our experiments were scheduled to test the influence of MASA on the progress of adjuvant arthritis in comparison with MD and ASA. […] Each standard cage housed 7 rats with unlimited access to drinking water and granulated standard feed. […] All efforts were made to minimize animal suffering and to reduce the number of animals used. A modified standard procedure for inducting and evaluating the progress of chronic adjuvant arthritis was used (Bellavite P, Ortolani R, Conforti A, Immunology and Homeopathy. 3. Experimental Studies on Animal Models, Advance Access Publication 2.05, 2006, 171-186). […] The solutions of test substances were prepared ex tempore. […] Test solutions were introduced to animal p.o. by catheter into the stomach. […] The effects of test substances were evaluated using the following criteria: The oedema, i.e. the volume of hind paw was measured by oncometer. The percentage of prevention (inhibition of oedema) was calculated according to formula: P(%)=(Vc−Vt)/Vc×100, where Vc—paw volume in control group Vt—paw volume in test group P—Prevention in % (inhibition of oedema)."}, "[2]": {"tested_on": "tail bleeding", "assay": "Tail bleeding time during thrombosis experiment", "type": "in vivo, rats", "conditions": "25 mg/kg p.o., single dose", "experimental": "Additionally during the thrombosis experiment rat tail bleeding time was measured. The tail was transected 5 mm from the tip with scalpel and the tail was immediately immersed into 37° C. warm isotonic saline until termination of bleeding was noted. Termination of bleeding was defined as the time of complete stop of bleeding with no recurrence of bleeding within the next 30 s."}, "[3]": {"tested_on": "rat ear skin temperature", "assay": "Ear skin temperature rise caused by NA, p.o. administration", "type": "in vivo, Wistar rats", "conditions": "MD 100 mg/kg p.o. alone", "experimental": "Male Wistar rats (280-330 g) were used. Animals were held in groups of 6 in climatized rooms at 22±1° C., relative humidity 60±5%, and 12/12-hour light/dark cycle with free access to drinking water and feed (R3—Lactamin AB, Sweden). For registration of changes in skin temperature of intact rats contactless temperature recording method was used (Papaliodis D et al, Br J Pharmacol 2008; 153:1382-1387). Temperature measurements were performed with a hand-held infrared thermometer (Model Proscan 510, TFA-Dostman). Animals were habituated to handling and to the infrared probe for 3 days before use. Temperature readings from the dorsal side of each ear were recorded without anaesthesia at beginning and during experiment. The ear temperature was measured every 5 min. for a period of up to 60 min. The animals were returned to their cages between measurements. NA, MD and MASA were dissolved in saline and pH was corrected immediately before usage. LA (MK 0524, Cayman Chemicals) was first dissolved in DMSO and then freshly diluted with 0.9% NaCl, on each day of the experiment. The rate of NA and LA combination was based on Summary of Product Characteristics for Tredaptive™ (nicotinic acid/laropiprant) 1000 mg/20 mg modified-release tablets.\n9.2.3. Investigation of the Effect of MASA/NA and MD/NA Combination on Skin Temperature at Simultaneous or 45 Min Advance p.o. Administration"}, "[4]": {"tested_on": "WBC, CRP, CIC in adjuvant arthritis", "assay": "Adjuvant arthritis: WBC, CRP and CIC in blood", "type": "in vivo, Wistar rats", "conditions": "100 mg/kg daily p.o.", "experimental": "Our experiments were scheduled to test the influence of MASA on the progress of adjuvant arthritis in comparison with MD and ASA. Experiments were conducted on Wistar rats with starting body mass of 153-185 g. Rats were kept in climatized rooms at 22±1° C., relative humidity 60±5% and 12/12-hour light/darkness cycle. Each standard cage housed 7 rats with unlimited access to drinking water and granulated standard feed. All experiments were carried out in accordance with the European Community Council's Directive of 24 Nov. 1986 (86/609/EEC) relative to experimental animal care. All efforts were made to minimize animal suffering and to reduce the number of animals used.\nA modified standard procedure for inducting and evaluating the progress of chronic adjuvant arthritis was used (Bellavite P, Ortolani R, Conforti A, Immunology and Homeopathy. 3. Experimental Studies on Animal Models, Advance Access Publication 2.05, 2006, 171-186). Rats were injected into the hind foot pad 0.1 ml and intraperitonealy with 0.05 ml of complete Freund's adjuvant solution.\nHematological indices were determined by standard methods on hematological analyzer ? PENTRA 120 ? , CRP was determined on ? INTEGRA 400+ ? . Levels of CIC in blood serum were determined spectrometrically, using […]."}, "[5]": {"tested_on": "CRP", "assay": "CRP levels in blood, carrageneen inflammation model", "type": "in vivo, rats", "conditions": "100 mg/kg", "experimental": "To evaluate the intensity of the inflammation process the CRP levels were determined by standard method on analyzer ? INTEGRA 400+ ? at the end of experiment (5 hours after injection of carrageneen)."}, "[6]": {"tested_on": "platelet aggregation", "assay": "Platelet aggregation in vitro, whole blood impedance aggregometry (Multiplate)", "type": "cell-based, healthy donor", "conditions": "10^−4", "experimental": "Platelet aggregation was studied using whole blood impedance aggregometry on Multiplate (Multiple Platelet Function Analyzer, Dynabyte Medical, Germany) (Toth O et al, Thromb Haemost 2006; 96:781-788. […] Blood samples for in vitro experiment were collected from healthy donor B. […] In the ex vivo experiment blood was collected into plastic tubes covered with hirudin (Dynabyte Medical, Germany) from narcotized rats that were treated for 3 previous days with test substances p.o. The measurements were performed according to modified Dynabyte Medical protocol. […] After 5 min incubation and stirring at 37° C., measurements were initiated by adding of the appropriate agonist solution (sourced from Dynabyte Medical, Germany): 1) adenosine diphosphate (ADP)-ADP-Test. ADP stimulates platelet activation by the ADP receptors (P2Y 12 and other). […] 3) ADP HS test (prostaglandin E1 in combination with ADP). […] Aggregation curves were recorded for 6 min. and analyzed using Dynabyte Medical software. We calculated the following parameters of platelet aggregation: […] It is affected by the total height of the aggregation curve as well as by its slope and is best suited to express the overall platelet activity."}},
  "data": [
    {"smiles": "C[N+](C)(C)NCCC(=O)[O-].O.O", "note": "[MD, 3-(Trimethylammonioamino)propanoate dihydrate]", "values": [
      {"measurement": "Dimensions of ankle joint on Day 14", "setting": "[1]", "value": "7.0 ± 0.13", "unit": "mm"},
      {"measurement": "Dimensions of ankle joint on Day 28", "setting": "[1]", "value": "7.0 ± 0.13", "unit": "mm"},
      {"measurement": "Paw volume on Day 14", "setting": "[1]", "value": "2.60 ± 0.21", "unit": "mL"},
      {"measurement": "Paw volume on Day 28", "setting": "[1]", "value": "1.93 ± 0.13", "unit": "mL"},
      {"measurement": "Prevention %, paw volume Day 14", "setting": "[1]; vs AdA", "value": "−7", "unit": "%"},
      {"measurement": "Prevention %, paw volume Day 28", "setting": "[1]; vs AdA", "value": 13, "unit": "%"},
      {"measurement": "Tail bleeding time", "setting": "[2]", "value": "10.5 ± 1.01", "unit": "min"},
      {"measurement": "Tail bleeding time, %", "setting": "[2]; control = 100", "value": 118, "unit": "%"},
      {"measurement": "Temp. 15 min", "setting": "[3]", "value": "30.1 ± 0.39^$$ ° C."},
      {"measurement": "Temp. 30 min", "setting": "[3]", "value": "29.8 ± 0.38^$$$ ° C."},
      {"measurement": "Temp. 45 min", "setting": "[3]", "value": "30.0 ± 0.34^$$ ° C."},
      {"measurement": "Max incr. %", "setting": "[3]; NA alone = 100", "value": 6, "unit": "%"},
      {"measurement": "CIC units, Day 14", "setting": "[4]", "value": "11.8 ± 2.22", "unit": "units"},
      {"measurement": "CIC units, Day 28", "setting": "[4]", "value": "8.6 ± 0.93", "unit": "units"},
      {"measurement": "CRP, Day 14", "setting": "[4]", "value": "0.26 ± 0.02", "unit": "mg/L"},
      {"measurement": "CRP, Day 28", "setting": "[4]", "value": "0.17 ± 0.02", "unit": "mg/L"},
      {"measurement": "Leucocytes (WBC), Day 14", "setting": "[4]", "value": "14.42 ± 1.41^# 10^3/mm^3"},
      {"measurement": "Leucocytes (WBC), Day 28", "setting": "[4]", "value": "15.55 ± 1.26^# 10^3/mm^3"},
      {"measurement": "CRP", "setting": "[5]; 5 h after carrageneen", "value": "0.22 ± 0.014", "unit": "mg/L"},
      {"measurement": "CRP increase %", "setting": "[5]; carrageneen control = 100", "value": 83, "unit": "%"},
      {"measurement": "AUC", "setting": "[6]; AA induced", "value": "1050 ± 37.6^& AU*min"},
      {"measurement": "Amax", "setting": "[6]; AA induced", "value": "179.5 ± 7.3^& AU"},
      {"measurement": "AUC", "setting": "[6]; ADP induced", "value": "869 ± 36.3", "unit": "AU*min"},
      {"measurement": "Amax", "setting": "[6]; ADP induced", "value": "153.2 ± 6.1", "unit": "AU"},
      {"measurement": "AUC", "setting": "[6]; PGE1 + ADP induced", "value": "587 ± 37.4^2&& AU*min"},
      {"measurement": "Amax", "setting": "[6]; PGE1 + ADP induced", "value": "101.4 ± 2.2^2&& AU"}
    ]}
  ]
}
